In patent publication US9062060B2, “Substituted imidazo[2,1-A]isoindoles as PDE10 inhibitors” (H. Lundbeck A/S, priority 2010, dated 2015):

Assays:
catalepsy in rats = details: cited from earlier work
[1] = system: hyperactivity in rats induced by PCP; details: cited from earlier work
[2] = system: PCP induced hyperactivity in male mice (NMRI); assay: Phencyclidine (PCP) induced hyperactivity; assay type: in vivo; details: at 5 mg/kg, per os 60 min before PCP 2.3 mg/kg s.c.
Protocol: Male mice (NMRI, Charles River) weighing 20-25 g are used. Eight mice are used in each group receiving the test compound (5 mg/kg) plus PCP (2.3 mg/kg) including the parallel control groups receiving the vehicle of the test compound plus PCP or vehicle injections only. The injection volumen is 10 ml/kg. The experiment is made in normal light conditions in an undisturbed room. The test substance is injected per oss 60 min before injection of PCP, which is administered subcutaneous.
Immediately after injection of PCP the mice are placed individually in special designed test cage (20 cm×32 cm). The activity is measured by 5×8 infrared light sources and photocells spaced by 4 cm. The light beams cross the cage 1.8 cm above the bottom of the cage. Recording of a motility count requires interruption of adjacent light beams, thus avoiding counts induced by stationary movements of the mice.
Motility is recorded in 5 min intervals for a period of 1 hour. The drug effect is calculated on the total counts during the 1 hour behavioral test period in the following manner. […] The 100 percent effect of PCP is accordingly calculated to be total motility counts minus baseline. The response in groups receiving test compound is thus determined by the total motility counts minus baseline, expressed in percent of the similar result recorded in the parallel PCP control group. […]

Structure (SMILES)	Effect on the cataleptic effect of the D2 receptor antagonist haloperidol (catalepsy in rats; combined with haloperidol)	Catalepsy on its own (catalepsy in rats; papaverine alone)	Effect on hyperactivity induced by PCP [1]	Inhibition of PCP induced hyperactivity [2]
COc1ccc(Cc2nccc3cc(OC)c(OC)cc23)cc1OC [Papaverine]	potentiated the cataleptic effect	did not cause catalepsy on its own	reduced hyperactivity	–
Cc1ncc(C)n2nc(CCc3cn4c(n3)-c3ccccc3C4)nc12 [2-[-2-(5,8-Dimethyl-[1,2,4]triazolo[1,5-a]pyrazin-2-yl)-ethyl]-5H-imidazo[2,1-a]isoindole]	–	–	–	100%
